Structures can show the parent of a compound that is named as a salt.
What was measured:
HTT mRNA [1] = test: Splicing RT-qPCR assay, HTT canonical (CJ) and alternative (AJ) junction mRNA; assay type: cell-based; conditions: Homo sapiens, A673 or K562 cells, 24 hours; for IC50: decrease in canonical junction mRNA; for AC50: increase in alternative junction mRNA
How it was run: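 A673 or K562 cells were treated 24 h at 37 °C with compounds in an 11-point 3-fold dilution series (top final 10 uM, DMSO ≤0.25%). Lysates were analysed by one-step RT-qPCR for canonical (CJ) and alternative-exon (AJ) junction isoforms, normalized to GAPDH, GUSB or PPIA.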

HTT mRNA [2] = test: Gene panel canonical junction qPCR assay, HTT CJ mRNA decrease; assay type: cell-based, human; conditions: Homo sapiens, canonical junction qPCR, read-out: HTT IC50 (decrease in CJ mRNA levels)
How it was run: (§1)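 A673 or K562 cells were treated with compound, and lysates underwent cDNA synthesis and qPCR with a CY5 5′-nuclease probe or primer spanning the canonical exon junction. ΔCt versus GAPDH, GUSB or PPIA was normalized to DMSO (2^(−ΔΔCt)), converted to percentage response and fitted four-parameter logistic for IC50.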

SMN2 mRNA = test: Gene panel canonical junction qPCR assay, SMN2 CJ mRNA decrease; assay type: cell-based, human; conditions: Homo sapiens, canonical junction qPCR, read-out: SMN2 IC50 (decrease in CJ mRNA levels)
How it was run: as §1

Compound | IC50 (HTT mRNA [1]) | IC50 (HTT mRNA [2]) | IC50 (SMN2 mRNA) | AC50 (HTT mRNA [1])
Cc1c(O)c(NC(=O)c2ccc(N3CCNCC3)c3ccnnc23)cc2cn(C)nc12 [Compound 181, N-(6-hydroxy-2,7-dimethylindazol-5-yl)-5-(piperazin-1-yl)cinnoline-8-carboxamide] | > 10000 nM | > 10000 nM | < 100 nM | > 10000 nM
Cc1cn2cc(NC(=O)c3ccc(N4CCN[C@@H](C)C4)c4nccnc34)cc(F)c2n1 [Compound 187, N-{8-fluoro-2-methylimidazo[1,2-a]pyridin-6-yl}-8-(3-methylpiperazin-1-yl) quinoxaline-5-carboxamide] | 1000 to 10000 nM | 1000 to 10000 nM | < 100 nM | 1000 to 10000 nM
Cc1cc2c(N3CCNCC3)ccc(C(=O)Nc3cc(F)c4nc(C)cn4c3)c2nn1 [Compound 159] | 100 to 1000 nM | 100 to 1000 nM | < 100 nM | 100 to 1000 nM
CC(=O)c1cc(NC(=O)c2ccc(N3CCNCC3)c3ccnnc23)cn2cc(C)nc12 [Compound 163, N-{8-acetyl-2-methylimidazo[1,2-a]pyridin-6-yl}-5-(piperazin-1-yl)cinnoline-8-carboxamide] | > 10000 nM | > 10000 nM | < 100 nM | > 10000 nM
Cc1cn2cc(NC(=O)c3ccc(N4CCNC5(CCOCC5)C4)c4nccnc34)cc(F)c2n1 [Compound 374] | 1000 to 10000 nM | 1000 to 10000 nM | < 100 nM | 1000 to 10000 nM
Cc1cn2cc(NC(=O)c3ccc(C4CCNCC4)c4nccnc34)cc(F)c2n1 [Compound 371] | 100 to 1000 nM | 100 to 1000 nM | < 100 nM | 100 to 1000 nM
Cc1cn2cc(NC(=O)c3ccc(N4CCNCC4)c4ccnnc34)cc(C)c2n1 [Compound 125] | 1000 to 10000 nM | 1000 to 10000 nM | < 100 nM | 1000 to 10000 nM
Cc1cnc2c(N3CCC(N(C)C)CC3)ccc(C(=O)Nc3cc(F)c4nc(C)cn4c3)c2n1 [Compound 200, 8-[4-(dimethylamino)piperidin-1-yl]-N-{8-fluoro-2-methylimidazo[1,2-a]pyridin-6-yl}-3-methylquinoxaline-5-carboxamide] | 100 to 1000 nM | 100 to 1000 nM | < 100 nM | 100 to 1000 nM
Cc1cn2cc(NC(=O)c3ccc(N4CCN(CCF)C5(CC5)C4)c4nccnc34)cc(F)c2n1 [Compound 370] | > 10000 nM | > 10000 nM | 100 to 1000 nM | > 10000 nM
Cc1cn2cc(NC(=O)c3ccc(N4C[C@@H](C)N[C@@H](C)C4)c4nccnc34)cc(F)c2n1 [Compound 186, 8-(3,5-dimethylpiperazin-1-yl)-N-{8-fluoro-2-methylimidazo[1,2-a]pyridin-6-yl}quinoxaline-5-carboxamide] | 1000 to 10000 nM | 1000 to 10000 nM | < 100 nM | 1000 to 10000 nM
Cc1cn2cc(NC(=O)c3ccc(N4CCC(N(C)C)CC4)c4ccnnc34)cc(F)c2n1 [Compound 137] | 100 to 1000 nM | 100 to 1000 nM | < 100 nM | 100 to 1000 nM
Cc1cn2cc(NC(=O)c3ccc(N4CCN5CCC[C@@H]5C4)c4ccnnc34)cc(F)c2n1 [Compound 153] | 100 to 1000 nM | 100 to 1000 nM | < 100 nM | 100 to 1000 nM
Cc1cn2nc(NC(=O)c3ccc(N4CCNCC4)c4ccnnc34)cc2c(C)n1 [Compound 123] | 1000 to 10000 nM | 1000 to 10000 nM | 1000 to 10000 nM | 1000 to 10000 nM
Cc1cn2cc(NC(=O)c3ccc(N4CCNCC4)c4ccnnc34)[nH]c(=O)c2n1 [Compound 177, N-{2-methyl-8-oxo-7H-imidazo[1,2-a]pyrazin-6-yl}-5-(piperazin-1-yl)cinnoline-8-carboxamide trifluoroacetic acid salt] | 100 to 1000 nM | 100 to 1000 nM | 100 to 1000 nM | 100 to 1000 nM
Cc1ccc2c(N3CCC(N(C)C)CC3)ccc(C(=O)Nc3cc(F)c4nc(C)cn4c3)c2n1 [Compound 215, 5-[4-(dimethylamino)piperidin-1-yl]-N-{8-fluoro-2-methylimidazo[1,2-a]pyridin-6-yl}-2-methylquinoline-8-carboxamide] | 100 to 1000 nM | 100 to 1000 nM | < 100 nM | 1000 to 10000 nM
Cc1cn2cc(NC(=O)c3ccc(N4C[C@H]5CC[C@@H](C4)N5)c4ccnnc34)cc(F)c2n1 [Compound 108] | 1000 to 10000 nM | 1000 to 10000 nM | < 100 nM | 1000 to 10000 nM

Further lines, with some results ahead:

IC50 (HTT mRNA [1]) | IC50 (HTT mRNA [2]) | IC50 (SMN2 mRNA) | Compound | AC50 (HTT mRNA [1])
> 10000 nM | > 10000 nM | < 100 nM | CN[C@@H]1CCN(c2ccc(C(=O)Nc3cc(F)c4nc(C)cn4c3)c3nc(OC)cnc23)C1 [Compound 204, (R)—N-{8-fluoro-2-methylimidazo[1,2-a]pyridin-6-yl}-3-methoxy-8-[3-(methylamino)pyrrolidin-1-yl]quinoxaline-5-carboxamide; trifluoroacetic acid] | > 10000 nM
1000 to 10000 nM | 1000 to 10000 nM | < 100 nM | Cc1cnc2c(N3C[C@@H](C)N[C@@H](C)C3)ccc(C(=O)Nc3cc(F)c4nc(C)cn4c3)c2n1 [Compound 216, 8-((3R,5S)-3,5-dimethylpiperazin-1-yl)-N-{8-fluoro-2-methylimidazo[1,2-a]pyridin-6-yl}-3-methylquinoxaline-5-carboxamide] | > 10000 nM
1000 to 10000 nM | 1000 to 10000 nM | < 100 nM | COc1nc(NC(=O)c2ccc(N3CCNCC3)c3ccnnc23)cn2cc(C)nc12 [Compound 179, N-{8-methoxy-2-methylimidazo[1,2-a]pyrazin-6-yl}-5-(piperazin-1-yl)cinnoline-8-carboxamide] | 1000 to 10000 nM
> 10000 nM | > 10000 nM | 1000 to 10000 nM | Cc1cn2cc(NC(=O)c3ccc(N4CCNCC4)c4ccnnc34)cc(C(C)O)c2n1 (stereo not drawn) [Compound 182, N-[8-(1-hydroxyethyl)-2-methylimidazo[1,2-a]pyridin-6-yl]-5-(piperazin-1-yl)cinnoline-8-carboxamide trifluoroacetate] | > 10000 nM
> 10000 nM | > 10000 nM | < 100 nM | COCCOc1cc2c(N3CCNCC3)ccc(C(=O)Nc3cc(F)c4nc(C)cn4c3)c2nn1 [Compound 199, N-{8-fluoro-2-methylimidazo[1,2-a]pyridin-6-yl}-3-(2-methoxyethoxy)-5-(piperazin-1-yl)cinnoline-8-carboxamide] | > 10000 nM
1000 to 10000 nM | 1000 to 10000 nM | < 100 nM | Cc1cnc2c(C(=O)Nc3cc(F)c4nc(C)cn4c3)ccc(N3CCC(N(C)C)CC3)c2n1 [Compound 208, 8-[4-(dimethylamino)piperidin-1-yl]-N-{8-fluoro-2-methylimidazo[1,2-a]pyridin-6-yl}-2-methylquinoxaline-5-carboxamide; bis(trifluoroacetic acid)] | 1000 to 10000 nM
1000 to 10000 nM | 1000 to 10000 nM | < 100 nM | Cc1ccc2c(N3CCNCC3)ccc(C(=O)Nc3cc(F)c4nc(C)cn4c3)c2n1 [Compound 162, N-{8-fluoro-2-methylimidazo[1,2-a]pyridin-6-yl}-2-methyl-5-(piperazin-1-yl)quinoline-8-carboxam-ide, trifluoroacetic acid] | 1000 to 10000 nM
> 10000 nM | > 10000 nM | < 100 nM | CNC1CCN(c2ccc(C(=O)Nc3cc(F)c4nc(C)cn4c3)c3nc(OC)cnc23)C1 (stereo not drawn) [Compound 202, N-{8-fluoro-2-methylimidazo[1,2-a]pyridin-6-yl}-3-methoxy-8-[3-(methylamino)pyrrolidin-1-yl]quinoxaline-5-carboxamide; bis(trifluoroacetic acid)] | > 10000 nM

From US20240409536A1, “COMPOUNDS AND METHODS FOR MODULATING SPLICING” (REMIX THERAPEUTICS INC., priority 2021, published 2024)
